Assay results taken from patent US8084649B2, “Herbicides” (Syngenta Crop Protection, inc., priority 2007, dated 2011).

Tests used:
Assay type in all cases: in vivo
[1] = test system: Alopecurus myosuroides (ALOMY); assay: Pre-emergence herbicidal activity, glasshouse pot test; conditions: Alopecurus myosuroides, 480 h, rate 500 g/ha, evaluated after 20 days, read-out: Pre-emergence activity, ALOMY (100=total damage to plant; 0=no damage to plant)
How it was run: (§1)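 One day after sowing in sterilised soil, pots receive an aqueous spray made from the compound dissolved in acetone and a formulation of emulsifier, N-methylpyrrolidone, glycol ether and X-77 wetter. Injury is assessed 20 days later against untreated expectations, scored from 0 (no damage) to 100.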

[2] = test system: Digitaria sanguinalis (DIGSA); assay: as above; conditions: Digitaria sanguinalis, 480 h, rate 500 g/ha, evaluated after 20 days, read-out: Pre-emergence activity, DIGSA (100=total damage to plant; 0=no damage to plant)
How it was run: as §1

Setaria faberi (SETFA) [3] = assay: as above; conditions: Setaria faberi, 480 h, rate 500 g/ha, evaluated after 20 days, read-out: Pre-emergence activity, SETFA (100=total damage to plant; 0=no damage to plant)
How it was run: as §1

Avena fatua (AVEFA) [4] = assay: as above; conditions: Avena fatua, 480 h, rate 500 g/ha, evaluated after 20 days, read-out: Pre-emergence activity, AVEFA (100=total damage to plant; 0=no damage to plant)
How it was run: as §1

[5] = test system: Echinochloa crus-galli (ECHCG); assay: as above; conditions: Echinochloa crus-galli, 480 h, rate 500 g/ha, evaluated after 20 days, read-out: Pre-emergence activity, ECHCG (100=total damage to plant; 0=no damage to plant)
How it was run: as §1

Lolium perenne (LOLPE) [6] = assay: as above; conditions: Lolium perenne, 480 h, rate 500 g/ha, evaluated after 20 days, read-out: Pre-emergence activity, LOLPE (100=total damage to plant; 0=no damage to plant)
How it was run: as §1

[7] = test system: Alopecurus myosuroides (ALOMY); assay: Post-emergence herbicidal activity, glasshouse pot test; conditions: Alopecurus myosuroides, rate 500 g/ha, evaluated after 14 or 15 days, read-out: Post-emergence activity, ALOMY (100=total damage to plant; 0=no damage to plant)
How it was run: (§2)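 Plants sown in sterilised standard soil, grown 10 days in glasshouse, then sprayed with aqueous dilution of active ingredient formulated in acetone plus Emulsogen EL/N-methylpyrrolidone/dipropylene glycol monomethyl ether/X-77 solution. Damage scored visually 14 or 15 days after spraying, 0 (none) to 100 (total).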

[8] = test system: Digitaria sanguinalis (DIGSA); assay: as above; conditions: Digitaria sanguinalis, rate 500 g/ha, evaluated after 14 or 15 days, read-out: Post-emergence activity, DIGSA (100=total damage to plant; 0=no damage to plant)
How it was run: as §2

Setaria faberi (SETFA) [9] = assay: as above; conditions: Setaria faberi, rate 500 g/ha, evaluated after 14 or 15 days, read-out: Post-emergence activity, SETFA (100=total damage to plant; 0=no damage to plant)
How it was run: as §2

Avena fatua (AVEFA) [10] = assay: as above; conditions: Avena fatua, rate 500 g/ha, evaluated after 14 or 15 days, read-out: Post-emergence activity, AVEFA (100=total damage to plant; 0=no damage to plant)
How it was run: as §2

[11] = test system: Echinochloa crus-galli (ECHCG); assay: as above; conditions: Echinochloa crus-galli, rate 500 g/ha, evaluated after 14 or 15 days, read-out: Post-emergence activity, ECHCG (100=total damage to plant; 0=no damage to plant)
How it was run: as §2

Lolium perenne (LOLPE) [12] = assay: as above; conditions: Lolium perenne, rate 500 g/ha, evaluated after 14 or 15 days, read-out: Post-emergence activity, LOLPE (100=total damage to plant; 0=no damage to plant)
How it was run: as §2

Compound	pest or weed control at 500 g/ha [1] [%]	pest or weed control at 500 g/ha [2] [%]	pest or weed control at 500 g/ha (Setaria faberi (SETFA) [3]) [%]	pest or weed control at 500 g/ha (Avena fatua (AVEFA) [4]) [%]	pest or weed control at 500 g/ha [5] [%]	pest or weed control at 500 g/ha (Lolium perenne (LOLPE) [6]) [%]	pest or weed control at 500 g/ha [7] [%]	pest or weed control at 500 g/ha [8] [%]	pest or weed control at 500 g/ha (Setaria faberi (SETFA) [9]) [%]	pest or weed control at 500 g/ha (Avena fatua (AVEFA) [10]) [%]	pest or weed control at 500 g/ha [11] [%]	pest or weed control at 500 g/ha (Lolium perenne (LOLPE) [12]) [%]
CCc1cc(C)cc(CC)c1C1=C(O)CC(COCCOC)CC1=O (stereo not drawn) [Compound T24]	100	100	100	80	100	100	90	90	100	80	100	90
CCc1cc(C)cc(CC)c1C1=C(O)CC(C2(SC)CCC2)CC1=O (stereo not drawn) [Compound T25]	100	100	100	100	100	100	100	100	100	100	80	90
Cc1cc(C)c(C2=C(O)CC3(CCOCC3)CC2=O)c(C)c1 [Compound T26]	90	100	70	20	100	90	60	80	80	10	100	50
CCc1cc(C)cc(C)c1C1=C(O)CC2(CCOCC2)CC1=O [Compound T27]	100	100	100	100	100	100	80	90	100	90	100	80
CCc1cc(C)cc(CC)c1C1=C(O)CC(CC(C)S(=O)(=O)CC)CC1=O (stereo not drawn) [Compound T28, 2-(2,6-diethyl-4-methylphenyl)-5-[2-(ethylsulfonyl)propyl]cyclohexane-1,3-dione]	70	100	100	100	100	100	90	100	90	100	100	80
